Results reported in US20020048812A1, “Isolation and in vitro differentiation of conditionally immortalized murine olfactory receptor neurons” (priority 2000, published 2002).
Entries after “also recorded” stand apart in the source; their conditions may differ.

B1: BDNF: brain-derived neurotrophic factor (Peprotech) (protein, UniProt P23560 129-247, looked up)
Neurotrophic factor BDNF: HSDPARRGELSVCDSISEWVTAADKKTAVDMSGGTVTVLEKVPVSKGQLKQYFYETKCNPMGYTKEGCRGIDKRHWNSQCRTTQSYVRALTMDSKKRIGWRFIRIDTSCVCTLTIKRGR
modifications: Neurotrophic factor BDNF
B2: NGF: 2.5 S nerve growth factor (Gibco BRL) (protein, UniProt P01139 122-241, looked up)
Beta-nerve growth factor: SSTHPVFHMGEFSVCDSVSVWVGDKTTATDIKGKEVTVLAEVNINNSVFRQYFFETKCRASNPVESGCRGIDSKHWNSYCTTTHTFVKALTTDEKQAAWRFIRIDTACVCVLSRKATRRG
modifications: Beta-nerve growth factor

Assays:
Type in all cases: cell-based, mouse
3NA12 cells = assay: Calcium imaging (Fura-2) of odorant responses in clone 3NA12; conditions: 10 μM single odorant; for Cells responding to each odorant: 1256 cells; for Cells responding to the odorant (increase in intracellular calcium concentration): total of 1256 cells in nineteen experiments, permissive conditions
Procedure: Prior to experiments (2-4 days), cells were plated onto glass coverslips and incubated in permissive conditions. To prepare for stimulation, cells were loaded with Fura-2 ([…]) for 30 minutes at 33° C., washed, and allowed to equilibrate for a further 30 minutes at room temperature. At the beginning of the experiment, cells were washed (W) to determine whether the mechanical disturbance associated with changing solution affected intracellular calcium concentrations.
To determine whether cells from the 3NA12 clone were capable of functional responses to odorants, single odorants were applied to cells loaded with Fura-2. […] Since the onset of odorant receptor expression is at c. E13 in the rat (Strotmann et al., 1995), and each of the components of the signal transduction pathway is present in cells cultured in permissive conditions, cells at permissive conditions were chosen for all subsequent experiments.
Cloned olfactory receptor neurons were plated onto glass coverslips up to one week before imaging. On the day of analysis, the culture medium was removed and replaced with MDV containing 2 μM Fura-2-AM (Molecular Probes, Eugene, Oreg.) and 0.2% Pluronic F-127 (Sigma) dissolved in DMSO. Cells were incubated at appropriate culture temperatures (33° C. or 37° C.) for at least 30 minutes, rinsed and allowed to equilibrate in medium for 30 minutes prior to experiments. Additionally, to ensure that a response could not be induced mechanically, each experiment was started by washing the cells with bath solution in the same manner used in odorant application. For solution exchange, 5 ml of bath solution or odorant test solution was pipeffed manually into the bath (volume, 300 μl) fitted with a continual suction pump. This ensured complete replacement of the bath solution with the incoming solution without altering bath volume. Single odorants were applied to the cloned cell line 3NA12 and mixtures of odorants were applied to primary cultures of mouse olfactory bulb neurons and rat ORNs. […] When single odorants were used, they were taken from Mixture 2. Stock solutions of odorants (20 mM in DMSO) were made up every second day and diluted 1:2000 in bath solution (final concentration, 10 μM each) within seconds of application. The bath solution contained 140 mM NaCl, 5 mM KCl, 2 mM CaCl2, 10 mM HEPES and 10 mM glucose at pH 7.4. Calcium imaging was performed as described previously (Krautwurst et al., 1998; Grynkiewicz et al., 1985), in which ratiometric measurements were obtained using the Zeiss/Attofluor-Ratiovision imaging system on a Zeiss Axiovert 135 microscope fitted with an F Fluor 20×/1.30 lens. Cells were illuminated at 340 nm and 380 nm and the emission at 510 nm was monitored using an intensified CCD camera. The Attofluor-Ratiovision software was used to derive the Ca^2+-dependent ratio. Solutions of CaCl2 (1 mM) and EDTA (1 mM) containing Fura-2 pentasodium salt ([…], Molecular Probes) were used to provide a two-point calibration of the experimental set-up as directed by the instrument manufacturer (Atto Instruments, Rockville, Md.).

[1] = system: NST+ cells in the heterogeneous culture; assay: Counting NST+ cells (anti-NST labeling) in heterogeneous olfactory cell cultures with growth factors; conditions: for Effect on the number of NST+ cells (in words): permissive conditions (33° C.)
Procedure: FIG. 2A. Interferon causes a significant, dose-dependent increase in the number of NST+ cells in the heterogeneous culture, with an EC50 of 0.4 U.ml^−1. Cells were incubated at 33° C. and were stained with anti-NST and rhodamine-coupled secondary antibodies seven days after plating. Cell counts were obtained from ten randomly selected areas in each experiment. Data were normalized to the mean number of NST+ cells in the absence of interferon and each point represents the mean ±S.E.M from three experiments.
FIG. 2B. EGF (•) and NGF (□) both have mitogenic effects in permissive conditions over and above the effect of interferon. NST+ cells were counted as described in (A) and were normalized to baseline levels in the presence of interferon (40 U.ml^−1). […] Except for the presence of interferon (40 U.ml^−1), all experimental conditions were as in A.
To determine the optimal conditions for cell survival, growth, differentiation and maturation, cells were cultured in permissive and non-permissive conditions in the presence of interferon, EGF, NGF, BDNF and NT-3. […] The effects of EGF, NGF, BDNF and NT-3 on cell maturation in non-permissive culture conditions were
To keep the amount of expressed TAg to the minimum required for immortalization (Noble et al., 1995), heterozygous offspring from homozygous male H-2K^b-tsA58 transgenic and C57B1 female mice (Charles River Laboratories, Wilmington Mass., and Jackson Laboratory, Bar Harbor, Me., respectively) were used to generate the conditionally immortal neuronal cell culture. Cells were isolated in a procedure modified from a previously established technique (Ronnett et al., 1991). Briefly, post-natal day 1-3 animals were decapitated and the heads were sectioned longitudinally. The olfactory epithelium and nasal septum were removed and placed in an Eppendorf tube containing 500 μl culture medium. The culture medium consisted of Minimum Essential Medium in which the L-valine has been replaced by D-valine (MDV). This was supplemented with 10% fetal bovine serum (FBS), 4 mM glutamine, kanamycin (100 μg.ml^−1), gentamicin (50 U.ml^−1) and amphotericin B (2.5 μg.ml^−1; all from Gibco BRL, Gaithersburg, Md.). The MDV medium was chosen because fibroblasts lack D-amino acid oxidase and the reduction of L-valine inhibits fibroblast survival and growth (Gilbert et al., 1986). Tissue was centrifuged at low speed for two minutes and then most of the medium was removed. The cell pellet was chopped briefly with a pair of fine-point scissors before being resuspended in supplemented cell culture medium. The resultant cell clumps and cell suspension were plated out onto 2- or 4-chamber glass slides (Nunc, Naperville, Ill.) or plastic dishes (Fisher Scientific, Pittsburgh, Pa.). To enhance ORN adhesion, all cell culture materials were pretreated with laminin (0.125 mg.ml^−1 in serum-free media, Collaborative Biomedical Products, Bedford, Mass.) for at least 12 hours, prior to plating. Cells were maintained in culture at 33° C. (the permissive temperature for the SV40 TAg) and, to stimulate transcription of the transgene, the culture medium was supplemented with murine γ-interferon (40 U.ml^−1, Genzyme, Cambridge, Mass.). Provisionally, in permissive conditions, the cell culture medium was supplemented with epidermal growth factor (EGF, 20 ng.ml^−1, Gibco BRL) and 2.5 S nerve growth factor (NGF, 10 ng.ml^−1, Gibco BRL) before thorough characterizations of their effects were made in later experiments.
To determine optimum conditions for cell survival, growth, differentiation or maturation, numerous combinations of culture conditions were tested. These included i) removal of the olfactory epithelium from newborn, 4-week-old, and sexually mature animals, ii) subjecting tissue to digestion by trypsin (Gibco BRL, 0.5 g.l^−1 for 60 minutes at 37° C.), iii) addition of growth factors to the culture medium and iv) the use of diverse culture media. […]

[2] = system: olfactory marker protein (OMP); assay: OMP expression by Western blot in cells in non-permissive conditions; conditions: 37° C., heterogeneous cell cultures, 15 μg protein per lane
Procedure: FIG. 2C. Effects of EGF, NGF, BDNF and NT-3 on OMP expression as determined by Western blot. Cells were maintained in non-permissive conditions at 37° C. in the absence of growth factors (C) or in presence of EGF (E), NGF (N), BDNF (B) or NT-3 (3). Samples were isolated from the heterogeneous cell cultures and from olfactory tissue (T), and were separated on a SDS-polyacrylamide gel (15 μg protein per lane). OMP is a 19 kD protein and, in situ, is expressed only in mature olfactory receptor neurons. OMP was not detected in control cells (C), cultured in the absence of growth factors or in cells incubated in the presence of EGF.
assayed by Western blot detection of olfactory marker protein (OMP), a marker of mature olfactory receptor neurons (Margolis, 1988).
Cells were always maintained in permissive culture conditions except when attempts were made to obtain a differentiated phenotype through transgene inactivation. In this case, cells were incubated in non-permissive culture conditions, i.e. at 37° C. in γ-interferon-free media for seven days, before the effects of transgene inactivation were determined. The effects of EGF, NGF, BDNF and NT-3 in promoting cell maturation/differentiation were assessed and, based on those experiments, BDNF and NT-3 were routinely added to the culture medium for cells in non-permissive culture conditions. In both culture environments, the air was kept humidified and contained 5% CO2.
Cells were scraped into a cold isolation buffer containing 20 mM Na(N-tris[hydroxymethyl]methyl-2-aminoethanesulfonic acid) (Na TES), 10 mM mannitol and 1% Triton X-100 at pH 7.4. The isolation buffer was supplemented with phenylmethylsulfonyl fluoride (30 μg.ml^−1), leupeptin (2 μg.ml^−1), benzamidine (16 μg.ml^'1), pepstatin (2 μg.ml^−1), and lima bean trypsin inhibitor (50 μg.ml^−1) to prevent protease activity. After five freeze/thaw cycles, cell extracts were centrifuged at 2,000 g for 5 minutes to pellet nuclei and cell debris. […]

[3] = 33° C., 100 ng.ml^−1, in the presence of 40 U.ml^−1 interferon, normalized to that point

Molecule | Cells responding to each odorant (3NA12 cells) | Cells responding to the odorant (increase in intracellular calcium concentration) (3NA12 cells) | Effect on the number of NST+ cells (in words) [1] | also measured
L-carvone | ~1% | 16 cells |  | 
EGF: epidermal growth factor (Gibco BRL) |  |  | increased the number of NST+ cells; also recorded: greatest increase of NST+ cells | Normalized # of NST+ Cells ([1]; 33° C., 10 ng.ml^−1, in the presence of 40 U.ml^−1 interferon, normalized to that point): 1.7 ± 0.2
CCCCCCC=O [heptaldehyde] | ~1% | 17 cells |  | 
CC(=O)c1ccccc1 [acetophenone] | ~1% | 15 cells |  | 
Interferon: murine γ-interferon (Genzyme), stimulates transcription of the transgene |  |  | significant increase | EC50 (increase in number of NST+ cells) ([1]; 33° C., permissive, seven days after plating, sigmoidal curve fit): 0.4 U.ml^−1; Normalized # of NST+ Cells ([1]; 33° C., interferon 40 U.ml^−1, normalized to NST+ cells cultured in the absence of interferon): 2.0 ± 0.2; Normalized # of NST+ Cells ([1]; 37° C., interferon 40 U.ml^−1, normalized to absence of interferon): 1.9 ± 0.1
B1 |  |  | no effect | Normalized # of NST+ Cells [1, 3]: 1.3 ± 0.2; Normalized # of NST+ Cells ([1]; 37° C., 100 ng.ml^−1): 1.3 ± 0.2; OMP expression detected by Western blot (in words) [2]: significant expression of OMP could be observed; also recorded: to a lesser degree, was detected
B2 |  |  | increased the number of NST+ cells | Normalized # of NST+ Cells [1, 3]: 1.5 ± 0.2; OMP expression detected by Western blot (in words) [2]: barely detectable
